Experiments:
Type in all cases: biochemical
MAPK2 (h) = MAPK2 (h) (Homo sapiens, UniProt P28482); assay: Kinase inhibition assay: MAPK2; settings: 30µM Testsubstanz (100 µM ATP); read-out: Hemmung von Kinasen in % MAPK2 (h)
Text: (§1) Alle Kinasen werden auf zehnfache Arbeitskonzentration vor Anwendung in dem Essay verdünnt. Die Zusammensetzung des Verdünnungspuffers ist für jede Kinase in der nachfolgenden Tabelle angegeben.
(§2) Alle Substrate werden gelöst und auf eine Stammlösung in entsalztem Wasser verdünnt.

JNK3 (r) = JNK3 (r) (Rattus norvegicus, UniProt P49187); assay: Kinase inhibition assay: JNK3; settings: 30µM Testsubstanz (100 µM ATP); read-out: Hemmung von Kinasen in % JNK3 (r)
JNK3 (r), sequence (P49187 whole entry): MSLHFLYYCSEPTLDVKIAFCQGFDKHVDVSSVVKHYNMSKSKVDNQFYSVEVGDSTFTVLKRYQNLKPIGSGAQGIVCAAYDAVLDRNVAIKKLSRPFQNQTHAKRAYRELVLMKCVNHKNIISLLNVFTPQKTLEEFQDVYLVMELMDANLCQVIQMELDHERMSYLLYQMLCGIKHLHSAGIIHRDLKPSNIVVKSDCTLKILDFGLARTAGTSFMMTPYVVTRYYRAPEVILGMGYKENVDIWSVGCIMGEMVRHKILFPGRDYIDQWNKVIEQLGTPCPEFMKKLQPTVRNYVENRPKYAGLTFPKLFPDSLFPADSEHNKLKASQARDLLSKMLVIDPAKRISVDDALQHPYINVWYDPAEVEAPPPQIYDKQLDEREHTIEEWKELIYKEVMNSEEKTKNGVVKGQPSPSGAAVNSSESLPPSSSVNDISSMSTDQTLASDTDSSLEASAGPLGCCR
Text: as §1, §2

MEK1 (h) = MEK1 (h) (Homo sapiens, UniProt Q02750); assay: Kinase inhibition assay: MEK1 (coupled to MAPK2 assay); settings: 30µM Testsubstanz (100 µM ATP); read-out: Hemmung von Kinasen in % MEK1 (h)
MEK1 (h), sequence (Q02750 whole entry): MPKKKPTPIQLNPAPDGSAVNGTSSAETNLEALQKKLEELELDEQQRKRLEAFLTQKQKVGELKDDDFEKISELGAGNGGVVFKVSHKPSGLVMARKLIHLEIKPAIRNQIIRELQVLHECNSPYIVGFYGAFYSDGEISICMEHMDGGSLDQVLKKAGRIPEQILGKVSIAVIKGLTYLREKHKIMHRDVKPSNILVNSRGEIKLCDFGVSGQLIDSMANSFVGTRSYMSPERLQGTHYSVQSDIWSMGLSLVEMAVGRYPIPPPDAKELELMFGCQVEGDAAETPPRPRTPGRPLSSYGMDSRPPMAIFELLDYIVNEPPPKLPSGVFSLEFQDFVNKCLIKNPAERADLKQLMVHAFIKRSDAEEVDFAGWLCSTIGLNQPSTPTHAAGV
Description: as §1, §2
MEK1 (h)(1-5 mU) in einem Endreaktionsvolumen von 25 µl wird mit 50 mM Tris pH 7.5, 0.2 mM EGTA, 0.1 % b-Mercaptoethanol, 0,01 % Brij-35, 1 µM inaktives MAPK2 (m), 10 mM MgAcetat und kaltem ATP inkubiert (Konzentration wie erforderlich). Die Reaktion wird durch Zugabe von MgATB initiiert. Nach 40-minütiger Inkubation bei Raumtemperatur werden […] dieses Inkubationsgemisches dazu verwendet, den oben beschriebenen MAPK2-Assay zu initiieren.

c-RAF (h) = c-RAF (h) (Homo sapiens, UniProt P04049); assay: Kinase inhibition assay (33P-ATP, P30 filter, scintillation counting): c-RAF; settings: 40 min; 30µM Testsubstanz (100 µM ATP); read-out: Hemmung von Kinasen in % c-RAF (h)
c-RAF (h), sequence (P04049 whole entry): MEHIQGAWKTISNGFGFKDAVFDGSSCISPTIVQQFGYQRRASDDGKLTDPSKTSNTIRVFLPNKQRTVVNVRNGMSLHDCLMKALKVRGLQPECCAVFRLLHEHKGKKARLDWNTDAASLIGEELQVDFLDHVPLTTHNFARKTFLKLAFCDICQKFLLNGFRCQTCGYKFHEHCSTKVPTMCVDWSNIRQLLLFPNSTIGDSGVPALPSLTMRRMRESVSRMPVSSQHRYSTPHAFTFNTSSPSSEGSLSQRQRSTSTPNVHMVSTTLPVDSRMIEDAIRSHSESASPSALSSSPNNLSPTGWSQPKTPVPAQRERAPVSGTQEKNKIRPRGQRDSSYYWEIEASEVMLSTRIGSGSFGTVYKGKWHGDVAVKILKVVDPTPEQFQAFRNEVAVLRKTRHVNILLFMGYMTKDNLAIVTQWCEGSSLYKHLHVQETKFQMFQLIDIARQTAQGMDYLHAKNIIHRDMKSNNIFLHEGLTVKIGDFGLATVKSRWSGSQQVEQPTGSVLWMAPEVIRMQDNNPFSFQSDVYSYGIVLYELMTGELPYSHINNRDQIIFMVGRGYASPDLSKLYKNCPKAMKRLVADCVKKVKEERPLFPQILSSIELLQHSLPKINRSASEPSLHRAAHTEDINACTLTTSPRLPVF
Description: as §1, §2
(§3) c-RAF (ha)(5-10 mU) in einem Endreaktionsvolumen von 25 µl wird mit 25 mM Tris pH 7.5,.0.02 mM EGTA, 0.66 mg/ml Myelin-Basisprotein, 10 mM MgAcetat und [γ-^33P-ATP] inkubiert (spezifische Aktivität etwa 50 cpm/pmol, Konzentration wie erforderlich). Die Reaktion wird durch Zugabe von Mg^2+[γ-^33P-ATP] initiiert. Nach 40-minütiger Inkubation bei Raumtemperatur wird die Reaktion durch Zugabe von 5 µl einer 3 %igen Phosphorsäurelösung gestoppt. 10 µl der Reaktion werden dann auf ein P30-Filter gegeben und dreimal jeweils 5 Minuten in 50 mM Phosphorsäure und einmal in Methanol gewaschen. Anschließend wird getrocknet und eine Szintillationszählung durchgeführt.

PKA (h) = assay: Kinase inhibition assay (33P-ATP, P30 filter, scintillation counting): PKA; settings: 30µM Testsubstanz (100 µM ATP); 40 min
MAPK1 (h) = MAPK1 (h) (Homo sapiens, UniProt P27361); assay: Kinase inhibition assay: MAPK1; settings: 30µM Testsubstanz (100 µM ATP); read-out: Hemmung von Kinasen in % MAPK1 (h)
MAPK1 (h), sequence (P27361 whole entry): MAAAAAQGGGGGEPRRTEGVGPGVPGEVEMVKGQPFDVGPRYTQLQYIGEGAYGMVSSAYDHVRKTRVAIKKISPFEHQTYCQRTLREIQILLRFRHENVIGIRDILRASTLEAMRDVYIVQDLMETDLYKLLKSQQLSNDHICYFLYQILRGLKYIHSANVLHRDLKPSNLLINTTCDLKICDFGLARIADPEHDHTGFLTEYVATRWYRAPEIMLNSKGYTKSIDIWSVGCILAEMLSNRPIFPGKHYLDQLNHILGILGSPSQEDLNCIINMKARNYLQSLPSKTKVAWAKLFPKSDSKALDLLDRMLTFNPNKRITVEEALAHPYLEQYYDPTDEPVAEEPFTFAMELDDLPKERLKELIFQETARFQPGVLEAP
Text: as §1, §2

GSK3β (h) = GSK3β (h) (Homo sapiens, UniProt P49841); assay: Kinase inhibition assay (33P-ATP, P30 filter, scintillation counting): GSK3β; settings: 30µM Testsubstanz (100 µM ATP); read-out: Hemmung von Kinasen in % GSK3β (h)
GSK3β (h), sequence (P49841 whole entry): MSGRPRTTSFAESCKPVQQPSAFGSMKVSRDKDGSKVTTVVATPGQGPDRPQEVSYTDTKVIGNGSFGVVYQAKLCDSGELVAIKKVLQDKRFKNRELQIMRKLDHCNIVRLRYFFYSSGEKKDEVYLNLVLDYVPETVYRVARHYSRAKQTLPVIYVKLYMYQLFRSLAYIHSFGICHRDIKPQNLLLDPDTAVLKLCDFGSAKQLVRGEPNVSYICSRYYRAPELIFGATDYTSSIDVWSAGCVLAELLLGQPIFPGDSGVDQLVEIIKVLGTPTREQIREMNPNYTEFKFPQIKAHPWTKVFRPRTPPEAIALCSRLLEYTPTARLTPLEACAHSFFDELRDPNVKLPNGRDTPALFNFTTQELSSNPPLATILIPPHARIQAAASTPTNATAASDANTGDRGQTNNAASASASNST
Description: as §1, §2
as §3, with “GSK3β (h)(5-10mU) in” for “c-RAF (ha)(5-10 mU) in”, “mit 8” for “mit 25”, “mM MOPS” for “mM Tris”, “pH 7.0, 0.2” for “pH 7.5,.0.02”, “mM EDTA, 20 µM […](p) EDEEE (phospho GS2 Peptid),” for “mM EGTA, 0.66 mg/ml Myelin-Basisprotein,”, “etwa 500” for “etwa 50”

PKB (h) = PKB (h) (Homo sapiens, UniProt P31749); assay: Kinase inhibition assay (33P-ATP, P30 filter, scintillation counting): PKB; settings: 40 min; 30µM Testsubstanz (100 µM ATP); read-out: Hemmung von Kinasen in % PKB (h)
PKB (h), sequence (P31749 whole entry): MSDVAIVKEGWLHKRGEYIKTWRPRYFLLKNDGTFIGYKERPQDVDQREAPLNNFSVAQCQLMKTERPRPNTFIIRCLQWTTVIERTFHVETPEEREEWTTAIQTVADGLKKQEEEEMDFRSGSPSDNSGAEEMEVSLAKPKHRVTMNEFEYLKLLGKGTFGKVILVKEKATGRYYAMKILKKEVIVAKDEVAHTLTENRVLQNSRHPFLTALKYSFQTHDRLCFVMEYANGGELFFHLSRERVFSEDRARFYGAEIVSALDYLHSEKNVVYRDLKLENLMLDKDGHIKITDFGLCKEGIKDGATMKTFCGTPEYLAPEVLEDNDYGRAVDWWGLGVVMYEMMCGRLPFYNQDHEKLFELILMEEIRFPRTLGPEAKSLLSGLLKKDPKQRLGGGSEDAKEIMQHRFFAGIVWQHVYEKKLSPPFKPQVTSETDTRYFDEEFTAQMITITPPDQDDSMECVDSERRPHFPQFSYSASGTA
Description: as §1, §2
as §3, with “PKBα (h)(5-10mU) wird in” for “c-RAF (ha)(5-10 mU) in”, “µl” for “µl wird”, “mit 8” for “mit 25”, “mM MOPS” for “mM Tris”, “pH 7.0, 0.2” for “pH 7.5,.0.02”, “mM EDTRA, 30 µM GRPRTSSFAEGKK,” for “mM EGTA, 0.66 mg/ml Myelin-Basisprotein,”

Lck (h) = Lck (h) (Homo sapiens, UniProt P06239); assay: Kinase inhibition assay (33P-ATP, P30 filter, scintillation counting): Lck; settings: 30µM Testsubstanz (100 µM ATP); read-out: Hemmung von Kinasen in % Lck (h)
Lck (h), sequence (P06239 whole entry): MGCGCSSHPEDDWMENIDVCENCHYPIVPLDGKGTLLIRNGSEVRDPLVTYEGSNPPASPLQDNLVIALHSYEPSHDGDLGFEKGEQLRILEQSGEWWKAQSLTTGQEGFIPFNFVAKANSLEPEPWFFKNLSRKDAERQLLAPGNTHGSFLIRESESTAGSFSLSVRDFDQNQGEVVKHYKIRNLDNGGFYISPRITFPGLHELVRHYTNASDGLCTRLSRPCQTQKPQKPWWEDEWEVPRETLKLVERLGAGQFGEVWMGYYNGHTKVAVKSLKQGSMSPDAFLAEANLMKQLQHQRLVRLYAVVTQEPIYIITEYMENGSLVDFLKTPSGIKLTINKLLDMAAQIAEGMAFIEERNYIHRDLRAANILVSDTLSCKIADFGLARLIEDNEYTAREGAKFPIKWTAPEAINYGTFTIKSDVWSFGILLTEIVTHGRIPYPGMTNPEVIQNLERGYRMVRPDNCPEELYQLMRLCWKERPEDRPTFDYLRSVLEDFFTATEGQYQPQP
Description: as §1, §2
as §3, with “Lck (h)(5-10 mU)” for “c-RAF (ha)(5-10 mU)”, “mit 50” for “mit 25”, “pH 7.5, 0.1” for “pH 7.5,.0.02”, “EGTA, 0.1 mM NaVanadate, 250 µM KVEKIGEGTYGVVYK (Cdc2 Peptid),” for “EGTA, 0.66 mg/ml Myelin-Basisprotein,”, “etwa 500” for “etwa 50”

ROCKII (h) = assay: Kinase inhibition assay (33P-ATP, P30 filter, scintillation counting): ROCK-II; settings: 30µM Testsubstanz (100 µM ATP); 40 min
SAPK2a (h) = SAPK2a (h) (Homo sapiens, UniProt Q16539); assay: Kinase inhibition assay (33P-ATP, P30 filter, scintillation counting): SAPK2a; settings: 30µM Testsubstanz (100 µM ATP); read-out: Hemmung von Kinasen in % SAPK2a (h)
SAPK2a (h), sequence (Q16539 whole entry): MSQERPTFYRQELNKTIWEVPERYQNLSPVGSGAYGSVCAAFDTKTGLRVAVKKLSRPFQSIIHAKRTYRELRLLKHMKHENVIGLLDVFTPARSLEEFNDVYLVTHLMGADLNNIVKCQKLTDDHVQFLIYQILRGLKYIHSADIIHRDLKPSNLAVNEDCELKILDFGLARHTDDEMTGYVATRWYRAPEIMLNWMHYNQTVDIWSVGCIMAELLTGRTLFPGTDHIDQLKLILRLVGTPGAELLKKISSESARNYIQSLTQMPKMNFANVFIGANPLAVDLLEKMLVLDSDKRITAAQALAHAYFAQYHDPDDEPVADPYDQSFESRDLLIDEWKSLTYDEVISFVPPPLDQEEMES
Description: as §1, §2
as §3, with “SAPK2a (h) wird” for “c-RAF (ha)(5-10 mU)”, “µl” for “µl wird”, “7,5, 0.02” for “7.5,.0.02”, “0.33” for “0.66”

MAPK2 (h), sequence (P28482 whole entry): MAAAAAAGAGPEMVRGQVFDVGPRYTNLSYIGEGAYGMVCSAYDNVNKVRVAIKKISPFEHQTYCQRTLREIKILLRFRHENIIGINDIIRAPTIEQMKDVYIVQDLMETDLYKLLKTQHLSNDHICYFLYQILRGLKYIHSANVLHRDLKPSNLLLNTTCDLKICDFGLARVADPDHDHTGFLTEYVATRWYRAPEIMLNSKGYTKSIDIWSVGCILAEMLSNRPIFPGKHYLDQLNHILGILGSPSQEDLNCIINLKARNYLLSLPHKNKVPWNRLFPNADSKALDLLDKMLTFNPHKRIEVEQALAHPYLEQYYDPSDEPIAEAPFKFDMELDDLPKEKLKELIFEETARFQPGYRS

Row | SMILES | inhibition at 30 µM (MAPK2 (h)) [%] | inhibition at 30 µM (JNK3 (r)) [%] | inhibition at 30 µM (MEK1 (h)) [%] | inhibition at 30 µM (c-RAF (h)) [%] | Hemmung von Kinasen in % PKA (h) (PKA (h)) [%] | inhibition at 30 µM (MAPK1 (h)) [%] | inhibition at 30 µM (GSK3β (h)) [%] | inhibition at 30 µM (PKB (h)) [%] | inhibition at 30 µM (Lck (h)) [%] | Hemmung von Kinasen in % ROCKII (h) (ROCKII (h)) [%] | inhibition at 30 µM (SAPK2a (h)) [%]
1 | c1ccc(Sc2ncnc3[nH]cnc23)cc1 [Verbd. 15, 6-Phenylsulfanyl-9H-purin] | 13 | 0 | 0 | 6 | 8 | 3 | 1 | 0 | 5 | 33 | 54
2 | C(=Cc1ncnc2[nH]cnc12)c1ccccc1 [Verbd. 72, 6-Styryl-9H-purin] | 20 | 2 | 7 | 66 | 4 | 50 | 20 | 7 | 37 | 22 | 17
3 | c1ccc(CSc2ncnc3[nH]cnc23)cc1 [Verbd. 9, 6-Benzylsulfanyl-9H-purin] | 12 | 7 | 7 | 53 | 13 | 15 | 35 | 4 | 22 | 28 | 50
4 | Nc1ncnc2c1ncn2Cc1ccc(F)cc1 [Verbd. 42a, 9-(4-Fluoro-benzyl)-9H-purin-6-ylamin] | 11 | 17 | 7 | 25 | 1 | 17 | 7 | 0 | 19 | 5 | 7
5 | Cn1c(-c2ccccc2)nc2c(-c3ccc(F)cc3)ncnc21 [Verbd. 41, 6-(4-Fluoro-phenyl)-9-methyl-8-phenyl-9H-purin] | 1 | 12 | 5 | 24 | 0 | 20 | 26 | 31 | 17 | 0 | 23
6 | Cn1c(-c2ccc([S+](C)[O-])cc2)nc2c(Sc3ccccc3)ncnc21 (stereo not drawn) [Verbd. 59, 8-(4-Methansulfinyl-phenyl)-9-methyl-6-phenylsulfanyl-9H-purin] | 0 | 6 | 3 | 0 | 0 | 0 | 4 | 4 | 30 | 1 | 27
7 | Cn1cnc2c(Nc3ccccc3)ncnc21 [Verbd. 13, (9-Methyl-9H-purin-6-yl)-phenyl-amin] | 42 | 5 | 4 | 44 | 0 | 16 | 26 | 0 | 18 | 0 | 0
8 | Cn1cnc2c(Sc3ccc(F)cc3)ncnc21 [Verbd. 18, 6-(4-Fluoro-phenylsulfanyl)-9-methyl-9H-purin] | 12 | 9 | 6 | 12 | 1 | 9 | 0 | 0 | 2 | 6 | 38
9 | Fc1ccc(Sc2ncnc3[nH]ccc23)cc1 [Verbd. 53, 4-(4-Fluoro-phenylsulfanyl)-7H-pyrrolo[2,3-d]pyrimidin] | 2 | 5 | 36 | 43 | 0 | 10 | 4 | 0 | 52 | 42 | 79
10 | Cn1c(-c2ccccc2)nc2c(Sc3ccccc3)ncnc21 [Verbd. 23, 9-Methyl-8-phenyl-6-phenylsulfanyl-9H-purin] | 0 | 12 | 4 | 12 | 3 | 10 | 0 | 42 | 5 | 1 | 44
11 | Cn1c(C#CCCO)nc2c(Sc3ccccc3)ncnc21 [Verbd. 79, 4-(9-Methyl-6-phenylsulfanyl-9H-purin-8-yl)-but-3-yn-1-ol] | 0 | 0 | 0 | 0 | 0 | 0 | 0 | 33 | 11 | 0 | 3
12 | c1ccc(Sc2ncnc3[nH]ccc23)cc1 [Verbd. 52, 4-Phenylsulfanyl-7H-pyrrolo[2,3-d]pyrimidin] | 4 | 0 | 41 | 22 | 0 | 11 | 11 | 0 | 56 | 36 | 56

From patent publication EP1444982A1, “The use of purine derivatives as selective kinase inhibitors” (MERCKLE GMBH, priority 2003, dated 2004)
